Assays:
[1] = target: SREBP-2 (Homo sapiens (Human), UniProt Q12772); assay: In vitro assay SREBP-2: PathHunter U2OS SREBP-2 Nuclear Translocation Cell Line, U18666A-stimulated; assay type: cell-based; details: PathHunter U2OS SREBP-2 nuclear translocation cells, U18666A 10 μM, overnight (16 hours)
[2] = target: LXRβ (Homo sapiens (Human), UniProt P55055); assay: In vitro assay LXRβ: PathHunter NHR CHO cells, LXRβ / Steroid Receptor Co-activator Peptide enzyme fragment complementation; assay type: cell-based; details: PathHunter NHR CHO cells, full-length human LXRβ and SRCP, chemiluminescent signal; read-out: LXRβ PPI
Summary of the method: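 Enzyme fragment complementation read-out: CHO cells stably expressing ProLink-tagged full-length human LXRβ plus nuclear enzyme acceptor–SRCP fusion, seeded and held overnight at 37° C. Medium with charcoal-dextran filtered serum; final vehicle 1%. Chemiluminescence measured after signal generation.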

Chain of LXRβ (P55055 whole entry, the tested form may be a part): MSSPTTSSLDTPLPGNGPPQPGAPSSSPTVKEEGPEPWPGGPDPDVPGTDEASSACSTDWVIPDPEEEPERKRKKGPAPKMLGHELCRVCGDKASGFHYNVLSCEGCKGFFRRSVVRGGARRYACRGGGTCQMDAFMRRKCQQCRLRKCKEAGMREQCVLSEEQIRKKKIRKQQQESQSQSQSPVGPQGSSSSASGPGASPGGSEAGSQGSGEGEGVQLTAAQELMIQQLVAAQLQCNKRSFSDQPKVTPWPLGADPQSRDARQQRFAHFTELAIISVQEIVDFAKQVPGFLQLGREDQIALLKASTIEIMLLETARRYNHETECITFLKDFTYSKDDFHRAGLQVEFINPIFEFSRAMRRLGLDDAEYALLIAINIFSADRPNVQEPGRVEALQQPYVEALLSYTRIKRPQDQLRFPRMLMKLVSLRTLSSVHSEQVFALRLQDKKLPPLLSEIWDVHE

Row | SMILES | IC50 [1] | EC50 [2]
1 | CC[C@]1(O)CC[C@@]2(C)C(=CC[C@H]3[C@@H]4CC[C@H]([C@H](C)CCC(=O)N5CCN(C(=O)OC)CC5)[C@@]4(C)CC[C@@H]32)C1 [Example 284, methyl 4-[(4R)-4-[(1R,3aS,3bS,7S,9aR,9bS,11aR)-7-ethyl-7-hydroxy-9a,11a-dimethyl-1H,2H,3H,3aH,3bH,4H,6H,7H,8H,9H,9aH,9bH,10H,11H,11aH-cyclopenta[a]phenanthren-1-yl]pentanoyl]piperazine-1-carboxylate] | 1 to 10 µM | > 10 µM
2 | C[C@H](CCC(=O)N1CCC(C)(C)CC1)[C@H]1CC[C@H]2[C@@H]3CC=C4C[C@@H](O)CC[C@]4(C)[C@H]3CC[C@]12C [Example 5, (R)-1-(4,4-dimethylpiperidin-1-yl)-4-((3S,8S,9S,10R,13R,14S,17R)-3-hydroxy-10,13-dimethyl-2,3,4,7,8,9,10,11,12,13,14,15,16,17-tetradecahydro-1H-cyclopenta[a]phenanthren-17-yl)pentan-1-one] | < 0.25 µM | 1 to 10 µM
3 | C[C@H](CCC(=O)N1CCN(c2ccnc(N)n2)CC1)[C@H]1CC[C@H]2[C@@H]3CC=C4C[C@@H](O)CC[C@]4(C)[C@H]3CC[C@]12C [Example 560, (R)-1-(4-(2-aminopyrimidin-4-yl)piperazin-1-yl)-4-((3S,8S,9S,10R,13R,14S,17R)-3-hydroxy-10,13-dimethyl-2,3,4,7,8,9,10,11,12,13,14,15,16,17-tetradecahydro-1H-cyclopenta[a]phenanthren-17-yl)pentan-1-one] | < 0.25 µM | > 10 µM
4 | C[C@H](CCC(=O)N1CCN(C(=O)c2cnn(C)c2)[C@@H](C)C1)[C@H]1CC[C@H]2[C@@H]3CC=C4C[C@@H](O)CC[C@]4(C)[C@H]3CC[C@]12C [Example 565, (4R)-4-[(1R,3aS,3bS,7S,9aR,9bS,11aR)-7-hydroxy-9a,11a-dimethyl-1H,2H,3H,3aH,3bH,4H,6H,7H,8H,9H,9aH,9bH,10H,11H,11aH-cyclopenta[a]phenanthren-1-yl]-1-[(3S)-3-methyl-4-(1-methyl-1H-pyrazole-4-carbonyl)piperazin-1-yl]pentan-1-one] | < 0.25 µM | > 10 µM
5 | C[C@H](CCc1ncccc1CO)[C@H]1CC[C@H]2[C@@H]3CC=C4C[C@@H](O)CC[C@]4(C)[C@H]3CC[C@]12C [Example 250, (3S,8S,9S,10R,13R,14S,17R)-17-((R)-4-(3-(hydroxymethyl)pyridin-2-yl)butan-2-yl)-10,13-dimethyl-2,3,4,7,8,9,10,11,12,13,14,15,16,17-tetradecahydro-1H-cyclopenta[a]phenanthren-3-ol] | < 0.25 µM | < 0.25 µM
6 | Cc1nccc(N2CCN(C(=O)CC[C@@H](C)[C@H]3CC[C@H]4[C@@H]5CC=C6C[C@@H](O)CC[C@]6(C)[C@H]5CC[C@]34C)[C@@H](C)C2)n1 [Example 649, (R)-4-((3S,8S,9S,10R,13R,14S,17R)-3-hydroxy-10,13-dimethyl-2,3,4,7,8,9,10,11,12,13,14,15,16,17-tetradecahydro-1H-cyclopenta[a]phenanthren-17-yl)-1-((S)-2-methyl-4-(2-methylpyrimidin-4-yl)piperazin-1-yl)pentan-1-one] | < 0.25 µM | > 10 µM
7 | C[C@H](CCc1ccccn1)[C@H]1CC[C@H]2[C@@H]3CC=C4C[C@@H](O)CC[C@]4(C)[C@H]3CC[C@]12C [Example 124, (3S,8S,9S,10R,13R,14S,17R)-10,13-dimethyl-17-((R)-4-(pyridin-2-yl)butan-2-yl)-2,3,4,7,8,9,10,11,12,13,14,15,16,17-tetradecahydro-1H-cyclopenta[a]phenanthren-3-ol] | < 0.25 µM | 0.25 to 1 µM
8 | C[C@H](CCC(=O)N1CCN(C(=O)c2ccn(C)n2)CC1)[C@H]1CC[C@H]2[C@@H]3CC=C4C[C@@H](O)CC[C@]4(C)[C@H]3CC[C@]12C [Example 539, (4R)-4-[(1R,3aS,3bS,7S,9aR,9bS,11aR)-7-hydroxy-9a,11a-dimethyl-1H,2H,3H,3aH,3bH,4H,6H,7H,8H,9H,9aH,9bH,10H,11H,11aH-cyclopenta[a]phenanthren-1-yl]-1-[4-(1-methyl-1H-pyrazole-3-carbonyl)piperazin-1-yl]pentan-1-one] | < 0.25 µM | > 10 µM
9 | Cc1c(N2CCN(C(=O)CC[C@@H](C)[C@H]3CC[C@H]4[C@@H]5CC=C6C[C@@H](O)CC[C@]6(C)[C@H]5CC[C@]34C)CC2)cnn1C [Example 603, (R)-1-(4-(1,5-dimethyl-1H-pyrazol-4-yl)piperazin-1-yl)-4-((3S,8S,9S,10R,13R,14S,17R)-3-hydroxy-10,13-dimethyl-2,3,4,7,8,9,10,11,12,13,14,15,16,17-tetradecahydro-1H-cyclopenta[a]phenanthren-17-yl)pentan-1-one] | < 0.25 µM | > 10 µM
10 | C[C@H](CCC(=O)N1CC[C@H](Oc2ccncn2)C1)[C@H]1CC[C@H]2[C@@H]3CC=C4C[C@@H](O)CC[C@]4(C)[C@H]3CC[C@]12C [Example 216, (4R)-4-[(1R,3aS,3bS,7S,9aR,9bS,11aR)-7-hydroxy-9a,11a-dimethyl-1H,2H,3H,3aH,3bH,4H,6H,7H,8H,9H,9aH,9bH,10H,11H,11aH-cyclopenta[a]phenanthren-1-yl]-1-[(3S)-3-(pyrimidin-4-yloxy)pyrrolidin-1-yl]pentan-1-one] |  | > 10 µM
11 | CC(=O)N1CCN(C(=O)CC[C@@H](C)[C@H]2CC[C@H]3[C@@H]4CC=C5C[C@@H](O)CC[C@]5(C)[C@H]4CC[C@]23C)C[C@@H]1C [Example 277, (R)-1-((S)-4-acetyl-3-methylpiperazin-1-yl)-4-((3S,8S,9S,10R,13R,14S,17R)-3-hydroxy-10,13-dimethyl-2,3,4,7,8,9,10,11,12,13,14,15,16,17-tetradecahydro-1H-cyclopenta[a]phenanthren-17-yl)pentan-1-one] |  | > 10 µM
12 | C[C@H](CCC(=O)N1O[C@H]2C[C@@H]1[C@H](O)[C@@H]2O)[C@H]1CC[C@H]2[C@@H]3CC=C4C[C@@H](O)CC[C@]4(C)[C@H]3CC[C@]12C [Example 54, (R)-1-((1S,4R,5S,6S)-5,6-dihydroxy-2-oxa-3-azabicyclo [2.2.1]heptan-3-yl)-4-((3S,8S,9S,10R,13R,14S,17R)-3-hydroxy-10,13-dimethyl-2,3,4,7,8,9,10,11,12,13,14,15,16,17-tetradecahydro-1H-cyclopenta[a]phenanthren-17-yl) pentan-1-one] |  | > 10 µM
13 | C[C@H](CCC(=O)N(C)C)[C@H]1CC[C@H]2[C@@H]3CC=C4C[C@@H](O)C[C@H](O)[C@]4(C)[C@H]3CC[C@]12C [Example 123, (R)-4-((1S,3R,8S,9S,10R,13R,14S,17R)-1,3-dihydroxy-10,13-dimethyl-2,3,4,7,8,9,10,11,12,13,14,15,16,17-tetradecahydro-1H-cyclopenta[a]phenanthren-17-yl)-N,N-dimethylpentanamide] |  | 1 to 10 µM
14 | C[C@H](CCC(=O)N1CCC[C@@H](Oc2ccncn2)C1)[C@H]1CC[C@H]2[C@@H]3CC=C4C[C@@H](O)CC[C@]4(C)[C@H]3CC[C@]12C [Example 217, (4R)-4-[(1R,3aS,3bS,7S,9aR,9bS,11aR)-7-hydroxy-9a,11a-dimethyl-1H,2H,3H,3aH,3bH,4H,6H,7H,8H,9H,9aH,9bH,10H,11H,11aH-cyclopenta[a]phenanthren-1-yl]-1-[(3R)-3-(pyrimidin-4-yloxy)piperidin-1-yl]pentan-1-one] |  | > 10 µM
15 | C[C@H](CCC(=O)N1CCN(c2ccccn2)CC1)[C@H]1CC[C@H]2[C@@H]3CC=C4C[C@@H](O)CC[C@]4(C)[C@H]3CC[C@]12C [Example 307, (R)-4-((3S,8S,9S,10R,13R,14S,17R)-3-hydroxy-10,13-dimethyl-2,3,4,7,8,9,10,11,12,13,14,15,16,17-tetradecahydro-1H-cyclopenta[a]phenanthren-17-yl)-1-(4-(pyridin-2-yl)piperazin-1-yl)pentan-1-one] |  | > 10 µM
16 | C[C@H](CCC(=O)N1CC(C)(C)[C@@H]2COC[C@@H]21)[C@H]1CC[C@H]2[C@@H]3CC=C4C[C@@H](O)CC[C@]4(C)[C@H]3CC[C@]12C [Example 138, (4R)-1-(3,3-dimethylhexahydro-1H-furo[3,4-b]pyrrol-1-yl)-4-((3S,8S,9S,10R,13R,14S,17R)-3-hydroxy-10,13-dimethyl-2,3,4,7,8,9,10,11,12,13,14,15,16,17-tetradecahydro-1H-cyclopenta[a]phenanthren-17-yl)pentan-1-one] |  | 0.25 to 1 µM
17 | COC(=O)N1CCN(C(=O)OC[C@@H](C)[C@H]2CC[C@H]3[C@@H]4CC=C5C[C@@H](O)CC[C@]5(C)[C@H]4CC[C@]23C)CC1 [Example 238, 1-(2S)-2-[(1R,3aS,3bS,7S,9aR,9bS,11aS)-7-hydroxy-9a,11a-dimethyl-1H,2H,3H,3aH,3bH,4H,6H,7H,8H,9H,9aH,9bH,10H,11H,11aH-cyclopenta[a]phenanthren-1-yl]propyl 4-methyl piperazine-1,4-dicarboxylate] |  | > 10 µM
18 | CC(NS(C)(=O)=O)C1CCN(C(=O)CC[C@@H](C)[C@H]2CC[C@H]3[C@@H]4CC=C5C[C@@H](O)CC[C@]5(C)[C@H]4CC[C@]23C)CC1 (stereo partly drawn) [Example 475, N-(1-(1-((R)-4-((3S,8S,9S,10R,13R,14S,17R)-3-hydroxy-10,13-dimethyl-2,3,4,7,8,9,10,11,12,13,14,15,16,17-tetradecahydro-1H-cyclopenta[a]phenanthren-17-yl)pentanoyl)piperidin-4-yl)ethyl)methanesulfonamide] |  | > 10 µM

From patent publication US20230340011A1 (Asteroid Therapeutics, priority 2022, published 2023)
